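Dose response: 5 concentrations. Exposure: 48 h. Format: 96-well plates. Endpoint: linear interpolation; highest concentration if not reached. At the GI50, growth is halved. TGI: concentration producing complete growth inhibition.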
Tests used:
Assay in all cases: NCI anticancer screen, dose series, 48 h
ACHN renal = test system: ACHN renal
HOP-62 NSCLC = test system: HOP-62 NSCLC
KM12 colon = test system: KM12 colon
OVCAR-4 ovarian = test system: OVCAR-4 ovarian
SR leukemia = test system: SR leukemia
TK-10 renal = test system: TK-10 renal
U251 CNS = test system: U251 CNS
A498 renal = test system: A498 renal
BT-549 breast = test system: BT-549 breast
PC-3 prostate = test system: PC-3 prostate

Row | SMILES | TGI (ACHN renal) [µM] | TGI (HOP-62 NSCLC) [µM] | TGI (KM12 colon) [µM] | TGI (OVCAR-4 ovarian) [µM] | TGI (SR leukemia) [µM] | TGI (TK-10 renal) [µM] | TGI (U251 CNS) [µM] | GI50 (A498 renal) [µM] | TGI (A498 renal) [µM] | GI50 (ACHN renal) [µM] | GI50 (BT-549 breast) [µM] | TGI (BT-549 breast) [µM] | GI50 (HOP-62 NSCLC) [µM] | GI50 (KM12 colon) [µM] | GI50 (OVCAR-4 ovarian) [µM] | GI50 (PC-3 prostate) [µM] | TGI (PC-3 prostate) [µM] | GI50 (TK-10 renal) [µM] | GI50 (U251 CNS) [µM] | GI50 (SR leukemia) [µM]
1 | CC(C)C1CO[C@]2(C)CCC(=O)N12 (some centres undefined) | > 100 | > 100 | > 100 | > 100 | > 100 | > 100 | > 100 |  |  |  |  |  |  |  |  |  |  |  |  | 
2 | N#Cc1nc(-c2ccc(F)cc2)oc1S(=O)(=O)N1CCCCC1 | 3.15 | 25.5 | 19.3 | 4.76 |  | 3.27 | 5.31 | 14.1 | 27.4 | 1.76 | 2.24 | 5.74 | 5.59 | 5.23 | 2.19 | 1.81 | 3.7 | 1.78 | 2.22 | 
3 | C[N+]1=c2c3cccc4cccc(c(=O)n2CC1)c43 | > 100 | 53.1 | 42.3 | 43.9 | 9.59 | 38.8 | 85.8 |  | 30.9 |  |  |  |  |  |  |  |  |  |  | 
4 | O=C1C2C(C(=O)N1c1ccccc1)C1c3ccccc3C2C2C(=O)N(c3ccccc3)C(=O)C21 (centres undefined) | > 100 |  | > 100 | > 100 |  | > 100 | 11.5 |  | > 100 |  |  |  |  |  |  |  |  |  |  | 
5 | CC(C)/C=C1\CCC(CN2CCOCC2)C1=O (centres undefined) | 32.3 | > 100 | 23.6 | 40 | 13.1 | 29.7 | > 56.4 |  | > 51.3 |  |  |  |  |  |  |  |  |  |  | 
6 | CCC[CH2][Sn]([CH2]CCC)([O]C(=O)c1cc(OC)c(OC)cc1OC)[O][Sn]([CH2]CCC)([CH2]CCC)[O]C(=O)c1cc(OC)c(OC)cc1OC | 1.17 | 3.67 | 2.3 | 2.96 |  | 2.86 | 2.41 | 0.508 | 1.76 | 0.339 |  |  | 2.11 | 0.897 | 1.33 |  |  | 1.53 | 1.17 | 
7 | C/C(CC(=O)NCCc1ccccc1)=N\NS(=O)(=O)c1ccc(C)cc1 | > 100 | > 100 | > 100 |  |  | > 100 | > 100 |  | > 100 |  |  |  |  |  |  |  |  |  |  | 
8 | COc1cc(-c2nc3ccccc3s2)ccc1OCCCCOc1cc2c(cc1OC)C(=O)N1CCC[C@H]1C=N2 | 5.8 | 3.37 |  | 7.61 | 0.785 | 8.81 | 1.63 | 1.6 | 4.16 | 1.31 |  |  | 1.56 |  | 1.5 | 0.785 | 2.55 | 2.27 | 0.489 | 0.212
9 | COC1C(OC(=O)c2ccc(C)[nH]2)C(O)C(Oc2ccc3c(O)c(NC(=O)c4c[nH]c(C(=O)Nc5c(O)c6ccc(OC7OC(C)(C)C(OC)C(OC(=O)c8ccc(C)[nH]8)C7O)c(C)c6oc5=O)c4C)c(=O)oc3c2C)OC1(C)C (centres undefined) | 9.43 |  | 8.89 | 6.82 |  | 37.3 | 2.89 |  | 4.8 |  |  |  |  |  |  |  |  |  |  | 
10 | C/C(CC(=O)Nc1cccc(Cl)c1C)=N\NC(N)=S |  | > 100 | > 100 |  |  | > 100 | > 100 |  | > 100 |  |  |  |  |  |  |  |  |  |  | 
11 | COc1ccccc1N=Nc1c(-c2ccccc2)nn(C(=O)CC(=O)Nc2cccc(C)c2)c1-c1ccccc1 | > 100 | > 100 | > 100 | > 100 |  | > 100 | > 100 |  | > 100 |  |  |  |  |  |  |  |  |  |  | 
12 | CCO/C=C1\N=C(c2ccc(Cl)c(Cl)c2)OC1=O | > 100 | > 100 | > 100 | > 100 |  | > 100 |  |  | > 100 |  |  |  |  |  |  |  |  |  |  | 
13 | CC(C)N(C(=O)c1cccc(C(=O)N(C(C)C)C(C)C)c1)C(C)C | > 100 | > 100 | > 100 | > 100 | > 100 | > 100 | > 100 |  | > 100 |  |  |  |  |  |  |  |  |  |  | 
14 | O=C(Oc1cccc(Cl)c1)c1ccccc1Nc1ccnc(C(F)(F)F)c1 |  | 44.7 | 41.4 |  | > 100 | > 100 |  |  |  |  | 6.77 | 27.6 | 24.9 | 9.53 |  | 7.39 | 23.6 | 85 |  | 0.434
15 | C#CC1(O)CCC2C3CCc4cc(Oc5nc(F)nc(-c6c7ccccc7c7n6CCS7)n5)ccc4C3CC[C@@]21C (some centres undefined) | > 100 | 36.1 | 28.3 | 68.6 | 92.3 | 71.3 | 40.7 |  |  |  |  |  |  |  |  |  |  |  |  | 
16 | CCCn1c2c(c3c(O)cccc31)C(=O)c1ccccc1-2 | 45.1 | 27.6 |  | 6.12 | 23.8 | > 100 | 56.2 |  |  | 14.9 |  |  | 8.24 |  | 0.0961 | 12.6 | 36 | 16.4 | 18.2 | 0.0354
17 | C=C1CC(CC)(CCN2C(=O)c3ccccc3C2=O)OC1=O (centres undefined) | 28.6 | > 100 | 45.1 | 27.8 | > 100 | 32.3 |  |  | 36.8 |  |  |  |  |  |  |  |  |  |  | 
18 | CNC(=O)NCC1OC(n2cnc3c(NC(=O)Nc4ccccc4)ncnc32)C(O[Si](C)(C)C(C)(C)C)C1O[Si](C)(C)C(C)(C)C (centres undefined) | > 100 | 17.1 | 4.14 | 43.9 |  | 72.6 | 10.8 | 2.03 | 4.96 | 3.83 | 2.94 | 8.18 | 4.98 | 2.13 | 3.44 | 2.69 | > 100 | 4.29 | 2.96 | 
19 | COc1cc(CNc2nc3c(N)cc(C(F)(F)F)cc3nc2-c2ccccc2)cc(OC)c1OC | > 100 | > 100 | > 100 | > 100 |  | > 100 | > 100 |  | > 100 |  |  |  |  |  |  |  |  | > 100 |  | 
20 | NC(=N\N=C/c1ccc(O)cc1)/C(N)=N\N=C/c1ccc(O)cc1 | > 100 | 67.1 | > 100 | > 100 |  | > 100 | > 100 | > 100 | > 100 | 3.85 | 77.5 | > 100 | 20.7 | 1.75 | > 90.1 | > 29 | > 100 | > 100 | 19.5 | 
